The source of these data is patent US20090264433A1, “Compounds, Compositions and Methods Comprising Triazine Derivatives” (Institute for OneWorld Health, priority 2008, published 2009).

SMILES strings stand for the structures. Where “and” joins values, the source holds several entries; their conditions need not be identical. Equal values may be shown once.

The experiment deals with mice (CD1 strain), CTX-injected small intestinal loops. The conditions noted are these: mouse, in vivo.
Consider `Oc1c(Br)cc(-c2cnc(OCc3ccc(Cl)cc3)nn2)cc1Br` [Compound 20, 2,6-dibromo-4-(3-(4-chlorobenzyloxy)-1,2,4-triazin-6-yl)phenol], for which the “closed loop % inhibition” value came to 87.6%. Regarding `Oc1c(Br)cc(-c2cnc(COc3cccc(Cl)c3Cl)nn2)cc1Br` [Compound 30, 2,6-dibromo-4-(3-((2,3-dichlorophenoxy)methyl)-1,2,4-triazin-6-yl)phenol], the “closed loop % inhibition” value was determined as 94.4%. For `Oc1c(Cl)cc(-c2cnc(OCc3ccccc3F)nn2)cc1Cl` [Compound 127, 2,6-dichloro-4-(3-(2-fluorobenzyloxy)-1,2,4-triazin-6-yl)phenol], the “closed loop % inhibition” value is 70.2% and 62.7%. `Oc1c(Br)cc(-c2cnc(OCCc3ccccc3)nn2)cc1Br` [Compound 96, 2,6-dibromo-4-(3-phenethoxy-1,2,4-triazin-6-yl)phenol]: the “closed loop % inhibition” value was determined as 78.6%.

For the compound `Oc1c(Cl)cc(-c2cnc(C(O)(c3ccccc3)c3ccccc3)nn2)cc1Cl` [Compound 36, 2,6-dichloro-4-(3-(hydroxydiphenylmethyl)-1,2,4-triazin-6-yl)phenol], the “closed loop % inhibition” value was 74.9% and 62.1%.
